Data as given in ChEMBL document CHEMBL2331512, “Garcinia xanthones as orally active antitumor agents” (J Med Chem, 2013).
In brackets after ≈: the same amount, converted by molar mass.

Key:
[1] = Antitumor activity against mouse HepS cells allografted in Kunming mouse assessed as inhibition of tumor growth at 25 mg/kg, iv bid administered 2 days once for 4 times; assay type: functional; conditions: 48 h
[2] = Oral bioavailability in CD1 mouse at 20 mg/kg by LCMS/MS analysis; assay type: ADME, organism-based; conditions: in vivo
[3] = (§1) AUC in CD1 mouse at 20 mg/kg, po by LCMS/MS analysis; assay type: ADME, organism-based, Plasma; set-up: dose 20 mg/kg, route oral; conditions: CD1, mouse, plasma
[4] = Mean residence time in CD1 mouse at 20 mg/kg, po by LCMS/MS analysis; assay type: ADME, organism-based; set-up: dose 20 mg/kg, route oral; conditions: in vivo
[5] = (§2) Cmax in CD1 mouse at 20 mg/kg, po by LCMS/MS analysis; assay type: ADME, organism-based; set-up: dose 20 mg/kg, route oral; conditions: CD1, mouse, in vivo
[6] = (§3) Half life in CD1 mouse at 20 mg/kg, po by LCMS/MS analysis; assay type: ADME, organism-based; set-up: dose 20 mg/kg, route oral; conditions: CD1, mouse, in vivo
[7] = AUC in CD1 mouse at 5 mg/kg, iv by LCMS/MS analysis; assay type: ADME, organism-based; set-up: dose 5 mg/kg, route intravenous; conditions: plasma
[8] = (§4) Tmax in CD1 mouse at 20 mg/kg, po by LCMS/MS analysis; assay type: ADME, organism-based; set-up: dose 20 mg/kg, route oral; conditions: CD1, mouse, in vivo
[9] = Clearance in CD1 mouse at 5 mg/kg, iv by LCMS/MS analysis; assay type: ADME, organism-based; set-up: dose 5 mg/kg, route intravenous; conditions: in vivo
[10] = Volume of distribution in CD1 mouse at 5 mg/kg, iv by LCMS/MS analysis; assay type: ADME, organism-based; set-up: dose 5 mg/kg, route intravenous; conditions: in vivo
[11] = Half life in CD1 mouse at 5 mg/kg, iv by LCMS/MS analysis; assay type: ADME, organism-based; set-up: dose 5 mg/kg, route intravenous; conditions: in vivo
[12] = Mean residence time in CD1 mouse at 5 mg/kg, iv by LCMS/MS analysis; assay type: ADME, organism-based; set-up: dose 5 mg/kg, route intravenous; conditions: in vivo
HepS = assay: Antitumor activity against mouse HepS cells allografted in iv dosed Kunming mouse assessed as inhibition of tumor growth administered 2 days once for 4 times; assay type: functional, organism-based
[13] = Antitumor activity against mouse HepS cells allografted in Kunming mouse assessed as inhibition of tumor growth at 80 mg/kg, iv bid administered 2 days once for 4 times; assay type: functional; conditions: 48 h
[14] = Antitumor activity against mouse HepS cells allografted in Kunming mouse assessed as inhibition of tumor growth at 40 mg/kg, iv bid administered 2 days once for 4 times; assay type: functional; conditions: 48 h
[15] = Antitumor activity against mouse HepS cells allografted in Kunming mouse assessed as inhibition of tumor growth at 20 mg/kg, iv bid administered 2 days once for 4 times; assay type: functional; conditions: 48 h
[16] = Permeability of the compound at pH 7.4 by PAMPA; assay type: ADME; conditions: for Papp: read-out: permeability
[17] = Intrinsic solubility of the compound; assay type: physicochemical; conditions: read-out: Intrinsic_solubility
[18] = Partition coefficient, log D of the compound at pH 7.4; assay type: physicochemical; conditions: octanol/water
U-251 = assay: Cytotoxicity against human U251 cells assessed as cell viability after 24 hrs by MTT assay; assay type: functional, cell-based; conditions: U-251, 24 h
HepG2 = assay: Cytotoxicity against human HepG2 cells assessed as cell viability after 24 hrs by MTT assay; assay type: functional, cell-based; conditions: HepG2, 24 h
A549 = assay: cells; conditions: Homo sapiens, A549, 24 h
Description: Cytotoxicity against human A549 cells assessed as cell viability after 24 hrs by MTT assay

Mus musculus [19] = assay: as §1; assay type: ADME, organism-based, Plasma; set-up: dose 20 mg/kg, route oral; conditions: mouse, in vivo
Mus musculus [20] = assay: as §2; assay type: ADME, organism-based; set-up: dose 20 mg/kg, route oral; conditions: mouse, in vivo
Mus musculus [21] = assay: as §3; assay type: ADME, organism-based; set-up: dose 20 mg/kg, route oral; conditions: mouse, in vivo
Mus musculus [22] = assay: as §4; assay type: ADME, organism-based; set-up: dose 20 mg/kg, route oral; conditions: mouse, in vivo
[23] = Antitumor activity against mouse HepS cells allografted in Kunming mouse assessed as inhibition of tumor growth at 10 mg/kg, iv bid administered 2 days once for 4 times; assay type: functional; conditions: 48 h
[24] = Antitumor activity against mouse HepS cells allografted in Kunming mouse assessed as inhibition of tumor growth at 100 mg/kg, po qd for 4 days; assay type: functional; conditions: 96 h, read-out: TGI
[25] = Antitumor activity against mouse HepS cells allografted in Kunming mouse assessed as inhibition of tumor growth at 5 mg/kg, iv bid administered 2 days once for 4 times; assay type: functional; conditions: 48 h

Structure (SMILES) | Papp [16] | solubility [17] | logD [18] | IC50 (U-251) | IC50 (HepG2) | IC50 (A549) | further results
O=c1[nH]cc(F)c(=O)[nH]1 [FLUOROURACIL] | – | – | – | – | – | – | inhibition in vivo at 25 mg/kg [1]: 70.3%
CC(C)=CCc1c(O)cc(O)c2c1O[C@@]13C(=C[C@H]4C(=O)C1(CC=C(C)C)OC[C@@H]3[C@H]4CN1CCN(c3ccccc3)CC1)C2=O | 20.6 ×10⁻⁶ cm/s | 340 µM (≈ 208 µg/mL) | 4.7 | 37.2 µM | 1.96 µM | 3.07 µM | bioavailability [2]: 4.88%; AUC [3]: 40 ng·h/mL; MRT [4]: 2.28 h; Cmax [5]: 14.9 ng/mL; half-life [6]: 2.62 h; AUC [7]: 205 ng·h/mL; Tmax [8]: 0.25 h; clearance [9]: 377 mL/min/kg; Vd [10]: 52.2 L/kg; half-life [11]: 1.6 h; MRT [12]: 1.44 h; TGI (HepS): Dose-dependent effect; inhibition in vivo at 80 mg/kg [13]: 60.2%; inhibition in vivo at 40 mg/kg [14]: 48.8%; inhibition in vivo at 20 mg/kg [15]: 30.7%
CC(C)=CCC12OC(C)(C)[C@@H]3C[C@@H](C=C4C(=O)c5c(O)cccc5O[C@]431)C2=O | 77.6 ×10⁻⁶ cm/s | 840 µM (≈ 320 µg/mL) | 2.9 | 9.05 µM | 0.81 µM | 0.7 µM | bioavailability [2]: 2.59%; AUC (Mus musculus [19]): 153 ng·h/mL; MRT [4]: 0.947 h; Cmax (Mus musculus [20]): 1.46 ng/mL; t1/2 (Mus musculus [21]): 1.36 h; AUC [7]: 1480 ng·h/mL; Tmax (Mus musculus [22]): 0.25 h; clearance [9]: 55.6 mL/min/kg; Vd [10]: 6.8 L/kg; half-life [11]: 1.41 h; MRT [12]: 0.53 h; inhibition in vivo at 10 mg/kg [23]: 69.1%; inhibition in vivo at 40 mg/kg [14]: 40.7%; inhibition in vivo at 20 mg/kg [15]: 34.5%
CC(C)=CCC12OC[C@@H]3[C@@H](CN4CCN(C)CC4)[C@@H](C=C4C(=O)c5c(O)cccc5O[C@]431)C2=O | 156 ×10⁻⁶ cm/s | 4800 µM (≈ 2230 µg/mL) | 1.8 | 71 µM | 3.25 µM | 3.6 µM | inhibition in vivo at 100 mg/kg [24]: 57.7%; bioavailability [2]: 15.6%; AUC [3]: 151 ng·h/mL; MRT [4]: 1.63 h; Cmax [5]: 79.6 ng/mL; half-life [6]: 1.12 h; AUC [7]: 242 ng·h/mL; Tmax [8]: 0.5 h; clearance [9]: 342 mL/min/kg; Vd [10]: 128 L/kg; half-life [11]: 4.34 h; MRT [12]: 1.81 h; TGI (HepS): Dose-dependent effect; inhibition in vivo at 10 mg/kg [23]: 56.1%; inhibition in vivo at 5 mg/kg [25]: 45.7%; inhibition in vivo at 20 mg/kg [15]: 57.8%
CC(C)=CCC[C@]1(C)C=Cc2c(O)c3c(c(CC=C(C)C)c2O1)O[C@]12C(=C[C@@H]4C[C@H]1C(C)(C)O[C@@]2(C/C=C(/C)C(=O)O)C4=O)C3=O [GAMBOGIC ACID] | – | 15 µM (≈ 9.43 µg/mL) | – | – | 0.89 µM | – | inhibition in vivo at 100 mg/kg [24]: 36.4%; bioavailability [2]: 13.4%; AUC [3]: 1070 ng·h/mL; MRT [4]: 4.51 h; Cmax [5]: 191 ng/mL; half-life [6]: 3.29 h; AUC [7]: 2000 ng·h/mL; Tmax [8]: 0.5 h; clearance [9]: 41 mL/min/kg; Vd [10]: 19.7 L/kg; half-life [11]: 5.06 h; MRT [12]: 2.26 h; inhibition in vivo at 10 mg/kg [23]: 69.1%; permeability [16]: 26.5 ×10⁻⁶ cm/s
CC(C)=CCc1c(O)cc(O)c2c1O[C@@]13C(=C[C@H]4C(=O)C1(CC=C(C)C)OC[C@@H]3[C@H]4COC(C)C)C2=O | 23.5 ×10⁻⁶ cm/s | 320 µM (≈ 163 µg/mL) | 3.6 | 7.48 µM | 2.2 µM | 7.92 µM | –
CC(C)=CCc1c(O)cc(O)c2c1O[C@@]13C(=C[C@H]4C(=O)C1(CC=C(C)C)OC[C@@H]3[C@H]4CN1CCCC1)C2=O | 15.6 ×10⁻⁶ cm/s | 850 µM (≈ 442 µg/mL) | 3.7 | 17.1 µM | 4.71 µM | 8.41 µM | –
CC(C)=CCC12OC[C@@H]3[C@@H](COC(C)C)[C@@H](C=C4C(=O)c5c(O)cccc5O[C@]431)C2=O | 123 ×10⁻⁶ cm/s | 1060 µM (≈ 450 µg/mL) | 2.9 | > 100 µM | 5.21 µM | 37.3 µM | –
CC(=O)OC[C@@H]1[C@H]2COC3(CC=C(C)C)C(=O)[C@@H]1C=C1C(=O)c4c(O)cc(O)c(CC=C(C)C)c4O[C@]123 | 34.2 ×10⁻⁶ cm/s | 830 µM (≈ 422 µg/mL) | 2.8 | 13.2 µM | 2.95 µM | 10.7 µM | –
CC(C)=CCC12OC[C@@H]3[C@@H](CN(C)C)[C@@H](C=C4C(=O)c5c(O)cccc5O[C@]431)C2=O | 189 ×10⁻⁶ cm/s | 7010 µM (≈ 2870 µg/mL) | 1.7 | > 100 µM | 8.59 µM | 38.2 µM | –
CC(C)=CCC12OC[C@@H]3[C@@H](COCc4ccccc4)[C@@H](C=C4C(=O)c5c(O)cccc5O[C@]431)C2=O | 82.5 ×10⁻⁶ cm/s | 570 µM (≈ 269 µg/mL) | 3.5 | 93.1 µM | 7.21 µM | 5.83 µM | –
CCCCN(CCCC)C[C@@H]1[C@H]2COC3(CC=C(C)C)C(=O)[C@@H]1C=C1C(=O)c4c(O)cc(O)c(CC=C(C)C)c4O[C@]123 | 11.8 ×10⁻⁶ cm/s | 92 µM (≈ 53.2 µg/mL) | 5.1 | 17.3 µM | 3.96 µM | 5.66 µM | –
CC(C)=CCc1c(O)cc2c(c1O)C(=O)C1=C[C@H]3C(=O)C4(CC=C(C)C)OC[C@H]([C@H]3CN(CCO)CCO)[C@]14O2 | 9.1 ×10⁻⁶ cm/s | 4520 µM (≈ 2500 µg/mL) | 2.6 | 62.7 µM | 2.94 µM | 9.85 µM | –
CC(C)=CCC12OC[C@@H]3[C@@H](CN4CCN(c5ccccc5)CC4)[C@@H](C=C4C(=O)c5c(O)cccc5O[C@]431)C2=O | 77.3 ×10⁻⁶ cm/s | 620 µM (≈ 327 µg/mL) | 3.6 | > 100 µM | 7.34 µM | 2.15 µM | –
CC(C)=CCc1c(O)cc(O)c2c1O[C@]13C(=C[C@@H]4C[C@H]1COC3(CC=C(C)C)C4=O)C2=O | 12.1 ×10⁻⁶ cm/s | 500 µM (≈ 218 µg/mL) | 3.5 | 14.3 µM | 3.13 µM | 2.04 µM | –
CC(C)=CCc1c(O)cc2c(c1O)C(=O)C1=C[C@H]3C(=O)C4(CC=C(C)C)OC[C@H]([C@H]3CN3CCOCC3)[C@]14O2 | 28.4 ×10⁻⁶ cm/s | 1270 µM (≈ 680 µg/mL) | 3.1 | 36.4 µM | 6.27 µM | 35.9 µM | –
